# Patent US11697648B2, “Fused pyrimidine pyridinone compounds as JAK inhibitors” (THERAVANCE BIOPHARMA R&D IP, LLC, priority 2019, dated 2023)
# Tests used:
# Tyk2 = Tyk2 (Homo sapiens (Human), UniProt P29597); experiment: Biochemical Tyk2 kinase assay (LanthaScreen)
# Summary of the method: (§1)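 GST-JAK + GFP-STAT1 peptide, HEPES pH 7.5/MgCl2/EGTA/Brij-35 buffer; cpd preincubation 1 h RT; ATP start, 1 h RT; stop with 10 mM EDTA + 2 nM Tb-anti-pSTAT1; TR-FRET 520/495. 4-parameter IC50 → pKi (Cheng-Prusoff).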
# [1] = tested on: IL-2 stimulated STAT5 phosphorylation in Tall-1 human T cell line (JAK3); experiment: Cellular JAK3 potency assay: inhibition of IL-2 stimulated pSTAT5 in Tall-1 T cells; format: cell-based; conditions: IL-2 stimulated pSTAT5, Tall-1 T cells
# Summary of the method: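 Tall-1 cells, 45,000 per well, preincubated 1 hour with compound at 37 °C, then stimulated 30 minutes with IL-2 at 300 ng/ml final. pSTAT5 (Tyr694/699) in lysates quantified by AlphaLISA SureFire Ultra. pIC50 derived from inhibition curves, given as mean with SD.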
# Caco-2 cell monolayers = experiment: Caco-2 permeation assay; format: in vitro ADME; conditions: 5 μM, A-B direction, with Verapamil (25 μM)
# Summary of the method: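 Compounds tested at 5 μM in duplicate across Caco-2 monolayers, apical-to-basolateral, with 25 μM verapamil to block P-gp, at 37° C., 5% CO2. Apical and basal samples taken at 0 and 120 min, analysed by LC-MS/MS; Papp (cm/sec) calculated as dQ/(dt×Area×concentration).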
# JAK1 = JAK1 (Homo sapiens (Human), UniProt P23458); experiment: Biochemical JAK1 kinase assay (LanthaScreen)
# Summary of the method: as §1
# JAK2 = JAK2 (Homo sapiens (Human), UniProt O60674); experiment: Biochemical JAK2 kinase assay (LanthaScreen)
# Summary of the method: as §1
# JAK3 = JAK3 (Homo sapiens (Human), UniProt P52333); experiment: Biochemical JAK3 kinase assay (LanthaScreen); conditions: for JAK3 (pKi)-JAK1 (pKi): selectivity JAK3 over JAK1, difference of pKi
# Summary of the method: as §1
# [2] = Colon and plasma mouse pharmacokinetics; format: in vivo; conditions: mouse, colon tissue / plasma; male Balb/c mice, 10 mg/kg PO; ratio of the colon AUC to the plasma AUC
# Summary of the method: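 Male Balb/c mice given 10 mg/kg PO in 1% HPMC + 0.1% Tween-80; plasma, colon tissue and colon contents taken at 0.5, 2 and 6 h, quantified by LC/MS/MS. Non-compartmental analysis on means of 2 animals/time point; colon:plasma ratio taken as colon AUC over plasma AUC.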
# JAK2, sequence (O60674 whole entry): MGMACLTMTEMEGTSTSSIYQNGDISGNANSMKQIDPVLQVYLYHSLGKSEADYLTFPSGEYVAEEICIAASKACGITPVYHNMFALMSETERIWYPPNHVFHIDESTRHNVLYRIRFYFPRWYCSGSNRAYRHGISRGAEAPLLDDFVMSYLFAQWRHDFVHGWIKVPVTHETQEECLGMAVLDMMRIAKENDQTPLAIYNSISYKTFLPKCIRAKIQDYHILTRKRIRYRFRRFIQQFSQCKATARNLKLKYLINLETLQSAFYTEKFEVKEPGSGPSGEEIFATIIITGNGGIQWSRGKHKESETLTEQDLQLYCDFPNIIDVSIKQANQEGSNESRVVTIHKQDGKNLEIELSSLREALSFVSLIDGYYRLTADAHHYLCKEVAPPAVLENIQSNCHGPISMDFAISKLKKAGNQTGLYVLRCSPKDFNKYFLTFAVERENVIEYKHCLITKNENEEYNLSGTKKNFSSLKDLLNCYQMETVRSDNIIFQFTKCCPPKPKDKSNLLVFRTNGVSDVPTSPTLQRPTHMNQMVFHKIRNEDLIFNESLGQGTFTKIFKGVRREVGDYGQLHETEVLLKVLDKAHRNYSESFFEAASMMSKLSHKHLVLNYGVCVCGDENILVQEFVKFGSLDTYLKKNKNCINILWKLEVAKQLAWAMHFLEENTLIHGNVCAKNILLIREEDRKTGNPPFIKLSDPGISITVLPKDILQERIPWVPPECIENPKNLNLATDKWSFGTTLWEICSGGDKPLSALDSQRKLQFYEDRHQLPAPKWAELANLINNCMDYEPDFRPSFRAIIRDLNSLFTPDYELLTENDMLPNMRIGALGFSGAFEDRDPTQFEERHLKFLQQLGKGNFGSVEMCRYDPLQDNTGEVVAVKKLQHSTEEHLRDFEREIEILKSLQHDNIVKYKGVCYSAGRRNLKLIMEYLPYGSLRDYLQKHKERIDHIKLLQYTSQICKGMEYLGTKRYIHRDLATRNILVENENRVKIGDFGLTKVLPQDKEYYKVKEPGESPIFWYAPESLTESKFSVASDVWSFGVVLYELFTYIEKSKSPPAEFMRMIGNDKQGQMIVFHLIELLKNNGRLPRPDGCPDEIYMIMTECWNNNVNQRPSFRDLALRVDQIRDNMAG
# JAK3, sequence (P52333 whole entry): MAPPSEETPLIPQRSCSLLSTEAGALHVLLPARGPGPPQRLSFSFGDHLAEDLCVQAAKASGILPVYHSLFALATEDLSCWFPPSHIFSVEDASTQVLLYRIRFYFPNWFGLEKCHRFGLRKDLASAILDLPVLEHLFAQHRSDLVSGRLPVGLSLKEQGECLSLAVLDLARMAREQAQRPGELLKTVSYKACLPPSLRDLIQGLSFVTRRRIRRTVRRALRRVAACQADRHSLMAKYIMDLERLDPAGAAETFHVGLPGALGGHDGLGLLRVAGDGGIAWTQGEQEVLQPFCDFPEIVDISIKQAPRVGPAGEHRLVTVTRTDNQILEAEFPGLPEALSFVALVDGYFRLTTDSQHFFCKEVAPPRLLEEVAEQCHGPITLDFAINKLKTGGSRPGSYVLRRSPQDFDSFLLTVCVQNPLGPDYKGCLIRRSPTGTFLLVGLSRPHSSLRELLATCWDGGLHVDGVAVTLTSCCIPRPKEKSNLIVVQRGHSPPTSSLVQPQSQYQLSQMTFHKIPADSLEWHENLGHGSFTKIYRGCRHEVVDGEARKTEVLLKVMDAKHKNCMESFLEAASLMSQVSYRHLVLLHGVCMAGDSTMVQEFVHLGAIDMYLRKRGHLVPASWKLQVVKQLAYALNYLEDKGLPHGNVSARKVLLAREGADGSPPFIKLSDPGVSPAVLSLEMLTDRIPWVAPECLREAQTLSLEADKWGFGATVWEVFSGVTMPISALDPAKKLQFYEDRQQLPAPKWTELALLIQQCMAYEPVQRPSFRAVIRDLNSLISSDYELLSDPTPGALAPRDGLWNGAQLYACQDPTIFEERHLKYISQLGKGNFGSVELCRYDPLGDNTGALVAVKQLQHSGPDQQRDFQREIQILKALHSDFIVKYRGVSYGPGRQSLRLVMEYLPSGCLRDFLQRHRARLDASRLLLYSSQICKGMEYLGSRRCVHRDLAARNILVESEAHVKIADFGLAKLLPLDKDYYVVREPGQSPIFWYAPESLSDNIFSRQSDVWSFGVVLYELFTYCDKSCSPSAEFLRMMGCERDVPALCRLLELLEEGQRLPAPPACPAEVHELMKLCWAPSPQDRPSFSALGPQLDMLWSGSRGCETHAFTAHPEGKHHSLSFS
# JAK1, sequence (P23458 whole entry): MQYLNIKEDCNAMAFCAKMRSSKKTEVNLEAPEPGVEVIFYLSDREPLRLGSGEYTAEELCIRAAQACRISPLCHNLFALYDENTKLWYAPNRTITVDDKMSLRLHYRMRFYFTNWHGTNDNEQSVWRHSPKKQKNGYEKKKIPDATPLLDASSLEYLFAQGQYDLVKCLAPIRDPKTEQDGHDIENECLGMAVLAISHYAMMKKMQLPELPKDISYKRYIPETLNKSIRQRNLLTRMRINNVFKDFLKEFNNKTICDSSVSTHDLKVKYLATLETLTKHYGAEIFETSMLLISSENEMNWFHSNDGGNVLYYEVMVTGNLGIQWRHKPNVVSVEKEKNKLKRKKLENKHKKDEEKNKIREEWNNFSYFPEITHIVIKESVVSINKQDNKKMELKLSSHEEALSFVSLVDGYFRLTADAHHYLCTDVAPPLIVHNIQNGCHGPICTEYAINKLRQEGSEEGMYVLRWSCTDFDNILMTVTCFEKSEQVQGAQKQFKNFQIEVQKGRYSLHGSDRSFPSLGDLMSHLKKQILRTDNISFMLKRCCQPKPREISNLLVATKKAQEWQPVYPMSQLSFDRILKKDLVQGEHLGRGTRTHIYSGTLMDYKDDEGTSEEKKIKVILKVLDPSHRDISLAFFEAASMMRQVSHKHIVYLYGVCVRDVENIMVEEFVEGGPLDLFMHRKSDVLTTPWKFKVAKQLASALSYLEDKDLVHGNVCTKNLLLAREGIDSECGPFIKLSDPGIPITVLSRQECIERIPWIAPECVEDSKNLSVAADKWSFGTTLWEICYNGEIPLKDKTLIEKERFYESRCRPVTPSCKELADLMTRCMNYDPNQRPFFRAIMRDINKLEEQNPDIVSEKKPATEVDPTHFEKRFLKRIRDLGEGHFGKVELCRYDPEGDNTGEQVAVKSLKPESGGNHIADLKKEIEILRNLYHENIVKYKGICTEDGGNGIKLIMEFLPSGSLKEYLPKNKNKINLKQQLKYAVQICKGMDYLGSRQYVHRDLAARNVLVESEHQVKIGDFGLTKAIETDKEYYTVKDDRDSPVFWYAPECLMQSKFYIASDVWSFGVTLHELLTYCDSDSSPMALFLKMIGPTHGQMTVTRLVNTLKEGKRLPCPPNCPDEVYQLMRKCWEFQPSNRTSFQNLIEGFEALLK
# Tyk2, sequence (P29597 whole entry): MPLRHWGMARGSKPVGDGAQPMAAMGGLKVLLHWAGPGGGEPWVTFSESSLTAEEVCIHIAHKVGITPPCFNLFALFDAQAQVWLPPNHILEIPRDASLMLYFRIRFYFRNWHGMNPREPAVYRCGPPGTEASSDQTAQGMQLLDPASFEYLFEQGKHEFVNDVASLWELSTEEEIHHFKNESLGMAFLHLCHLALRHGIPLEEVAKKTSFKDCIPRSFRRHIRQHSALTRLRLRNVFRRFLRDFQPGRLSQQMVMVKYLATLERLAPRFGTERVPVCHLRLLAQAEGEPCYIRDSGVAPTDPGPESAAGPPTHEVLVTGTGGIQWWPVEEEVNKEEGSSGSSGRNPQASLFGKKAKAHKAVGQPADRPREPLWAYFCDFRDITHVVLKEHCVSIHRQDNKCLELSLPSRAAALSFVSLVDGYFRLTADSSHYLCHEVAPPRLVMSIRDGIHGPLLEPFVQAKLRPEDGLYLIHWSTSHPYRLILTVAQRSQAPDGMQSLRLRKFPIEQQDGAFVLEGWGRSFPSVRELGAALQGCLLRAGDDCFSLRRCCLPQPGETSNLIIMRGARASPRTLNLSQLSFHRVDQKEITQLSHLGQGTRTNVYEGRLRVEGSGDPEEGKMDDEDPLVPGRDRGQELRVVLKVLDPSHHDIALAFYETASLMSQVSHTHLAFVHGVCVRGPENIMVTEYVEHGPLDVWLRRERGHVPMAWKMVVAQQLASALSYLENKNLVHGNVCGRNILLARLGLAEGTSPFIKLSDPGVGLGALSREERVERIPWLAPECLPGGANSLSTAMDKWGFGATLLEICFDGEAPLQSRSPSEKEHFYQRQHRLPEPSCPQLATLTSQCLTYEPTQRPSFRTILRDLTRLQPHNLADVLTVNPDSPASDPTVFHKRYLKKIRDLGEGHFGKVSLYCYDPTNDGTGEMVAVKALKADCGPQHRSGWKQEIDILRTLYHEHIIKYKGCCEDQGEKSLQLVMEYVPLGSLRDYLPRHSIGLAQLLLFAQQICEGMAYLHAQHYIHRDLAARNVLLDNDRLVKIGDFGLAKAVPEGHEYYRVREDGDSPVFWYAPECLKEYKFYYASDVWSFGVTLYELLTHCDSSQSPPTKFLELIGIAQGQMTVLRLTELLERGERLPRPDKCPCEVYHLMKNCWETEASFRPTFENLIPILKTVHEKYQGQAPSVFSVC
Compound,Tyk 2 (pKi) (Tyk2),Tall-1 (pIC50) [1],Caco Kp (Caco-2 cell monolayers),JAK 1 (pKi) (JAK1),JAK 2 (pKi) (JAK2),JAK 3 (pKi) (JAK3),JAK3 (pKi)-JAK1 (pKi) (JAK3),Kp [2]
"C=CC(=O)N1CC(CCn2c(=O)ccc3cnc(Nc4cccc(CN5CCN(S(C)(=O)=O)CC5)c4)nc32)C1 [Example 6, 8-(2-(1-acryloylazetidin-3-yl)ethyl)-2-((3-((4-(methylsulfonyl)piperazin-1-yl)methyl)phenyl)amino)pyrido[2,3-d]pyrimidin-7(8H)-one]",E (E represents a pKi value of 7 or below (Ki of 100 nM or above)),B (B represents a pC50 value between 6.7 (included) and 7.5 (IC50 between 200 nM and 32 nM)),A (A represents a value below 5×10^−6 cm/sec),E (E represents a pKi value of 7 or below (Ki of 100 nM or above)),E (E represents a pKi value of 7 or below (Ki of 100 nM or above)),B (B represents pKi value between 9 and 10 (Ki between 1 nM and 0.1 nM)),A (A represents a value of 3 or above),> 100
C=CC(=O)N1CC(CCn2c(=O)ccc3cnc(Nc4ccc(N5CCN(S(=O)(=O)C6COC6)CC5)cc4)nc32)C1 [Example 102],E (E represents a pKi value of 7 or below (Ki of 100 nM or above)),B (B represents a pC50 value between 6.7 (included) and 7.5 (IC50 between 200 nM and 32 nM)),A (A represents a value below 5×10^−6 cm/sec),E (E represents a pKi value of 7 or below (Ki of 100 nM or above)),E (E represents a pKi value of 7 or below (Ki of 100 nM or above)),A (A represents a pKi value≥10 (Ki≤0.1 nM)),A (A represents a value of 3 or above),> 1000
C=CC(=O)N1CC(CCn2c(=O)ccc3cnc(Nc4ccc(N5CCN(C(=O)N(C)C)CC5)cc4)nc32)C1 [Example 92],E (E represents a pKi value of 7 or below (Ki of 100 nM or above)),B (B represents a pC50 value between 6.7 (included) and 7.5 (IC50 between 200 nM and 32 nM)),A (A represents a value below 5×10^−6 cm/sec),E (E represents a pKi value of 7 or below (Ki of 100 nM or above)),E (E represents a pKi value of 7 or below (Ki of 100 nM or above)),B (B represents pKi value between 9 and 10 (Ki between 1 nM and 0.1 nM)),A (A represents a value of 3 or above),> 100
C=CC(=O)N1CCN(CCn2c(=O)ccc3cnc(Nc4ccc(N5CCN(C(=O)N(C)C)CC5)cc4)nc32)[C@@H](C)C1 [Example 174],E (E represents a pKi value of 7 or below (Ki of 100 nM or above)),B (B represents a pC50 value between 6.7 (included) and 7.5 (IC50 between 200 nM and 32 nM)),B (B represents a value between 5×10^−6 and 10×10^−6 cm/sec),E (E represents a pKi value of 7 or below (Ki of 100 nM or above)),E (E represents a pKi value of 7 or below (Ki of 100 nM or above)),B (B represents pKi value between 9 and 10 (Ki between 1 nM and 0.1 nM)),A (A represents a value of 3 or above),> 14
C=CC(=O)N1CC(CCn2c(=O)ccc3cnc(Nc4cnn(C)c4)nc32)C1 [Example 15],E (E represents a pKi value of 7 or below (Ki of 100 nM or above)),B (B represents a pC50 value between 6.7 (included) and 7.5 (IC50 between 200 nM and 32 nM)),B (B represents a value between 5×10^−6 and 10×10^−6 cm/sec),E (E represents a pKi value of 7 or below (Ki of 100 nM or above)),E (E represents a pKi value of 7 or below (Ki of 100 nM or above)),B (B represents pKi value between 9 and 10 (Ki between 1 nM and 0.1 nM)),A (A represents a value of 3 or above),> 100
